Experimental findings from PubChem BioAssay AID330 (DTP/NCI, 2004) are described below.

The test system of the assay is P388 leukemia ip, CD2F1 mice, survival T/C. The assay is described as follows: NCI In Vivo Anticancer Drug Screen. Data for tumor model P388 Leukemia (intraperitoneal) in CD2F1 (CDF1) mice. The conditions noted are these: endpoint: median survival time, higher = longer survival. The procedure, abridged:
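Mice carrying the transplanted tumor received test compound or vehicle. Survival was recorded in each group, and the value is the treated-group measurement divided by that of the vehicle-treated control group.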

Where [1] appears, read: dose: 60.0 mg/kg/injection, schedule: Q01DX005 (ip), vehicle: saline.
Where [2] appears, read: dose: 120.0 mg/kg/injection, schedule: Q01DX005 (ip), vehicle: saline.
The mark [3] stands for this setting: dose: 240.0 mg/kg/injection, schedule: Q01DX005 (ip), vehicle: saline.
[4] abbreviates: dose: 12.5 mg/kg/injection, schedule: Q04DX003 (ip), vehicle: saline with Tween-80.
Where [5] appears, read: dose: 100.0 mg/kg/injection, schedule: Q01DX009 (ip), vehicle: saline with Tween-80.
Where [6] appears, read: dose: 200.0 mg/kg/injection, schedule: Q01DX009 (ip), vehicle: saline with Tween-80.
[7] abbreviates: dose: 400.0 mg/kg/injection, schedule: Q01DX009 (ip), vehicle: saline with Tween-80.
Setting [8] is: dose: 60.0 mg/kg/injection, schedule: Q01DX005 (ip), vehicle: saline with Tween-80.
Where [9] appears, read: dose: 120.0 mg/kg/injection, schedule: Q01DX005 (ip), vehicle: saline with Tween-80.
Setting [10] is: dose: 240.0 mg/kg/injection, schedule: Q01DX005 (ip), vehicle: saline with Tween-80.
The mark [11] stands for this setting: dose: 100.0 mg/kg/injection, schedule: Q01DX001 (ip), vehicle: saline with Tween-80.
Setting [12] is: dose: 200.0 mg/kg/injection, schedule: Q01DX001 (ip), vehicle: saline with Tween-80.
The mark [13] stands for this setting: dose: 400.0 mg/kg/injection, schedule: Q01DX001 (ip), vehicle: saline with Tween-80.

SMILES strings stand for the structures. Values joined by “and” are separate entries in the source; they are usually repeats but may differ in a detail not shown here. Equal entries are not always repeated. Inconclusive results and toxic doses are left out.

As for `CC(C)N(CCO)CC(O)Cn1cnc2ncnc(N)c21` (stereo not given), the T/C runs as follows: under setting [1], 94 % of control; under setting [2], 97 % of control; under setting [3], 94 % of control.

Turning to `NC(=S)N/N=C/c1cccc(CC(O)(C(F)(F)F)C(F)(F)F)n1`, the T/C is, setting by setting: under setting [4], 100 % of control; (dose: 25.0 mg/kg/injection, schedule: Q04DX003 (ip), vehicle: saline with Tween-80) 87 % of control.

As to `NS(=O)(=O)c1cc([N+](=O)[O-])sc1SSc1sc([N+](=O)[O-])cc1S(N)(=O)=O`, the T/C is, setting by setting: (dose: 6.25 mg/kg/injection, schedule: Q01DX001 (ip), vehicle: saline with Tween-80) 99 % of control; (dose: 12.5 mg/kg/injection, schedule: Q01DX001 (ip), vehicle: saline with Tween-80) 104 % of control; (dose: 25.0 mg/kg/injection, schedule: Q01DX001 (ip), vehicle: saline with Tween-80) 100 % of control.

With `CCOC(=O)c1nnc(-c2ccccc2)nc1Cl`, the T/C reads like this: (dose: 60.0 mg/kg/injection, schedule: Q01DX005 (ip), vehicle: Klucel (hydroxypropylcellulose) (HPC)) 103 % of control; (dose: 120.0 mg/kg/injection, schedule: Q01DX005 (ip), vehicle: Klucel (hydroxypropylcellulose) (HPC)) 100 % of control.

As to `Cc1cc(Br)c2ccccc2c1NS(=O)(=O)c1ccccc1`, the T/C reads like this: under setting [5], 100 % of control; under setting [6], 100 % of control; under setting [7], 90 % of control.

Take `COC(=O)c1nnn(-c2ccc(Cl)cc2Cl)c1N`: the T/C under setting [8] was 103 % of control, the T/C under setting [9] was 103 % of control and the T/C under setting [10] is 122 % of control.

Turning to `COc1ccc(C(OC)C2CCCCC2N2CCCCC2)cc1` (stereo not given), the T/C (dose: 0.5 mg/kg/injection, schedule: Q01DX009 (ip), vehicle: Klucel (hydroxypropylcellulose) (HPC)) was 107 % of control; the T/C (dose: 1.0 mg/kg/injection, schedule: Q01DX009 (ip), vehicle: Klucel (hydroxypropylcellulose) (HPC)) is 114 % of control; the T/C (dose: 2.0 mg/kg/injection, schedule: Q01DX009 (ip), vehicle: Klucel (hydroxypropylcellulose) (HPC)) was 107 % of control; the T/C (dose: 4.0 mg/kg/injection, schedule: Q01DX009 (ip), vehicle: Klucel (hydroxypropylcellulose) (HPC)) is 109 % of control.

For `O=C(O)CC(=O)O.[NH-]C1CCCC([NH-])C1.[Pt+2]` (stereo not given), the T/C is 157 % of control (dose: 12.5 mg/kg/injection, schedule: Q04DX002 (ip), vehicle: saline with Tween-80) and 180 % of control (dose: 25.0 mg/kg/injection, schedule: Q04DX002 (ip), vehicle: saline with Tween-80).

Regarding `O=C(O)c1cccc(Cl)c1` (tested in a mixture with another compound), the T/C runs as follows: under setting [11], 94 % of control; under setting [12], 99 % of control; under setting [13], 95 % of control.

Turning to `Cc1nc(Nc2ccccc2)c(C#N)c(=O)[nH]1`, the T/C was 86 % of control under setting [8], 86 % of control under setting [9] and 86 % of control under setting [10].

On to `C/C=C/C=C/C(=O)c1ccc(OC)cc1O`, for which the T/C reads like this: (dose: 50.0 mg/kg/injection, schedule: Q01DX009 (ip), vehicle: saline with Tween-80) 103 % of control and 105 % of control; under setting [5], 101 % of control and 103 % of control; under setting [6], 101 % of control and 106 % of control; under setting [7], 106 % of control and 108 % of control.

With `Nc1cc(F)ccc1CC(=O)O`, the T/C under setting [1] was 103 % of control, the T/C under setting [2] is 99 % of control and the T/C under setting [3] is 99 % of control.

As to `OCC(Br)(Br)Br`, the T/C was 100 % of control under setting [11], 98 % of control under setting [12] and 100 % of control under setting [13].

For the compound `C=C(C#N)COc1ccc(Cl)cc1C`, the T/C by setting is: (dose: 12.5 mg/kg/injection, schedule: Q01DX009 (ip), vehicle: Klucel (hydroxypropylcellulose) (HPC)) 101 % of control; (dose: 25.0 mg/kg/injection, schedule: Q01DX009 (ip), vehicle: Klucel (hydroxypropylcellulose) (HPC)) 98 % of control; (dose: 50.0 mg/kg/injection, schedule: Q01DX009 (ip), vehicle: Klucel (hydroxypropylcellulose) (HPC)) 104 % of control and 95 % of control.

For `CC1C(=O)NC(=O)CC1c1ccccc1` (stereo not given), the T/C by setting is: (dose: 100.0 mg/kg/injection, schedule: Q04DX002 (ip), vehicle: saline with Tween-80) 100 % of control; (dose: 200.0 mg/kg/injection, schedule: Q04DX002 (ip), vehicle: saline with Tween-80) 103 % of control; (dose: 400.0 mg/kg/injection, schedule: Q04DX002 (ip), vehicle: saline with Tween-80) 95 % of control.

In the case of `O=C1c2ccccc2C(=O)c2c(O)c(NCCCNCCO)cc(O)c21`, the T/C runs as follows: (dose: 2.5 mg/kg/injection, schedule: Q01DX009 (ip), vehicle: acid diluted with saline) 103 % of control; (dose: 5.0 mg/kg/injection, schedule: Q01DX009 (ip), vehicle: acid diluted with saline) 108 % of control; (dose: 10.0 mg/kg/injection, schedule: Q01DX009 (ip), vehicle: acid diluted with saline) 103 % of control; (dose: 20.0 mg/kg/injection, schedule: Q01DX009 (ip), vehicle: acid diluted with saline) 112 % of control; (dose: 40.0 mg/kg/injection, schedule: Q01DX009 (ip), vehicle: acid diluted with saline) 111 % of control; (dose: 80.0 mg/kg/injection, schedule: Q01DX009 (ip), vehicle: acid diluted with saline) 100 % of control.

`Cn1c2c(F)cccc2c(=O)c2c(O)cc3c(c21)C=CC(C)(C)O3`: the T/C (dose: 50.0 mg/kg/injection, schedule: Q01DX005 (ip), vehicle: Klucel (hydroxypropylcellulose) (HPC)) was 96 % of control; the T/C (dose: 100.0 mg/kg/injection, schedule: Q01DX005 (ip), vehicle: Klucel (hydroxypropylcellulose) (HPC)) is 91 % of control; the T/C (dose: 200.0 mg/kg/injection, schedule: Q01DX005 (ip), vehicle: Klucel (hydroxypropylcellulose) (HPC)) was 94 % of control.

With `COc1ccc(CC2c3cc(OC)c(OC)c(OC)c3CC[N+]2(C)C)cc1Oc1ccc(CC2c3cc4c(c(OC)c3CCN2C)OCO4)cc1` (stereo not given), the T/C was 99 % of control (dose: 3.13 mg/kg/injection, schedule: Q04DX002 (ip), vehicle: saline) and 103 % of control (dose: 6.25 mg/kg/injection, schedule: Q04DX002 (ip), vehicle: saline).

Consider `COC(=O)CCCOc1ccc(N(CCCl)CCCl)cc1`, for which the T/C runs as follows: (dose: 100.0 mg/kg/injection, schedule: Q04DX003 (ip), vehicle: Klucel (hydroxypropylcellulose) (HPC)) 194 % of control; (dose: 200.0 mg/kg/injection, schedule: Q04DX003 (ip), vehicle: Klucel (hydroxypropylcellulose) (HPC)) 223 % of control.

As to `COC(=O)c1ccccc1N1C(=O)C=CC1=O`, the T/C runs as follows: (dose: 6.25 mg/kg/injection, schedule: Q04DX003 (ip), vehicle: saline with Tween-80) 92 % of control; under setting [4], 92 % of control.

`CCOc1ccccc1N=Nc1c(-c2ccccc2)nn(C(N)=S)c1-c1ccccc1`: the T/C is 100 % of control (dose: 50.0 mg/kg/injection, schedule: Q01DX005 (ip), vehicle: saline with Tween-80); 108 % of control (dose: 100.0 mg/kg/injection, schedule: Q01DX005 (ip), vehicle: saline with Tween-80); 101 % of control (dose: 200.0 mg/kg/injection, schedule: Q01DX005 (ip), vehicle: saline with Tween-80).

In the case of `CCCCCCN(C)C12CN3CN(CN(C3)C1)C2`, the T/C runs as follows: (dose: 50.0 mg/kg/injection, schedule: Q01DX009 (ip), vehicle: saline) 102 % of control; (dose: 100.0 mg/kg/injection, schedule: Q01DX009 (ip), vehicle: saline) 102 % of control; (dose: 200.0 mg/kg/injection, schedule: Q01DX009 (ip), vehicle: saline) 102 % of control.
